Tests used:
recombinant PIM-1 = recombinant PIM-1 (Homo sapiens, UniProt P11309); assay: PIM-1 kinase assay; format: biochemical; settings: Table 5; read-out: PIM1 IC50
In short: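 Recombinant PIM-1 (1 ng) with 100 uM KKRNRTLTK peptide, 15 uM ATP plus [γ-33P]ATP, 10 mM Mg acetate, MOPS pH 7.0, 4% DMSO. Reaction 40 min at 23° C, quenched with phosphoric acid; labeled peptide captured on phosphocellulose filters and counted by scintillation.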

recombinant human CK2 = molecular target: T1, recombinant human CK2 (Homo sapiens, UniProt P68400); assay: cell-free CK2 assay; format: biochemical
T1 construct: purchased Upstate
In short: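 Recombinant human CK2 (25 ng) phosphorylated peptide RRRDDDSDDD (1 mM stock) in MOPS pH 7.2 buffer with vanadate and EGTA, started with 75 micromolar ATP stock spiked with [γ-33P]ATP, 10 minutes at 30 degrees C. Phosphoric acid-quenched peptide was captured on phosphocellulose and counted by scintillation.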

recombinant human PIM2 = recombinant human PIM2 (Homo sapiens, UniProt Q9P1W9); assay: PIM-2 kinase assay; format: biochemical
In short: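 Radiometric filter-binding assay: 4 ng recombinant human PIM2 in MOPS pH 7.0 buffer with test compound in DMSO, started with 75 uM ATP stock (containing [γ-33P]ATP and MgCl2) and 1 mM RSRSSYPAGT peptide stock. Reaction run 10 min at 30 °C, stopped with phosphoric acid, and phosphopeptide captured on phosphocellulose and counted by scintillation.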

FLT3 = molecular target: T2, FLT3 (Homo sapiens, UniProt P36888); assay: FLT3 inhibition; format: biochemical
T2 sequence (P36888 27-993): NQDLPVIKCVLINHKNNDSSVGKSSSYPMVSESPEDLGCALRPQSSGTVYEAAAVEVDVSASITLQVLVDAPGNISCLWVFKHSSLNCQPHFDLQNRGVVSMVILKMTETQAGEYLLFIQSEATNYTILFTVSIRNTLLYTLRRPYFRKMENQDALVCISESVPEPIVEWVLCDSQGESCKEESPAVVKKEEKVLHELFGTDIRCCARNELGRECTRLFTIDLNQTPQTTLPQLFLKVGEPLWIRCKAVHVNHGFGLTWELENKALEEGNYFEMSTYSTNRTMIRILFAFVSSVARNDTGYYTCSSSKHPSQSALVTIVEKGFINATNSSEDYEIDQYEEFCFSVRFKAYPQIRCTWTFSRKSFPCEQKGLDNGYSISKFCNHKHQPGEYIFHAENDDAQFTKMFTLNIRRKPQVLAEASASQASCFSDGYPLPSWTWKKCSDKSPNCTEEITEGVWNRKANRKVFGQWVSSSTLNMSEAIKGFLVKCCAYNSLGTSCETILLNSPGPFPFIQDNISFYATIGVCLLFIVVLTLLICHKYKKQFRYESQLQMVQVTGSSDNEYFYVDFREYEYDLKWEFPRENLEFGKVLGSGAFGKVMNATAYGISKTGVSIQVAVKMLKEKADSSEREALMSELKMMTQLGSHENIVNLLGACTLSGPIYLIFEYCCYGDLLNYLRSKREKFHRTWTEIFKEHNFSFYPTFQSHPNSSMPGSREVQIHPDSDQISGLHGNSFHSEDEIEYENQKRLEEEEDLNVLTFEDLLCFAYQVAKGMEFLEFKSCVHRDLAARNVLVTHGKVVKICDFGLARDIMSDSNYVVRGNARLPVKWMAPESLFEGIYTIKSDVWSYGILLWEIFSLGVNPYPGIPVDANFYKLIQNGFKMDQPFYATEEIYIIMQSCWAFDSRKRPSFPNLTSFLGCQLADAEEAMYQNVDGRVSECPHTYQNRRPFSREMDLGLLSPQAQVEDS

[1] = system: K-562 human chronic myelogenous leukemia (CML) cells; assay: Alamar Blue cell proliferation assay, K-562; format: cell-based; settings: K562, Table 5
In short: (§1)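 Cells were seeded at 4,000–5,000/well and exposed to compound dilutions for 4 days at 37 °C, 5% CO2, humidified. Alamar Blue was added for 4 h, with fluorescence read at 544 nm excitation and 590 nm emission. Controls were untreated cells and medium-only wells.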

MV-4-11 = assay: Alamar Blue cell proliferation assay, MV-4-11; format: cell-based; settings: Homo sapiens, MV4-11; Table 5
In short: as §1

[2] = system: BxPC3 human pancreatic adenocarcinoma cells; assay: Alamar Blue cell proliferation assay, BxPC3; format: cell-based; settings: BXPC-3
Procedure: (§2) A representative cell-proliferation assay protocol using Alamar Blue dye (stored at 4° C., use 20 ul per well) is described hereafter.
(§3) a. Split and trypsinize cells.
(§4) b. Count cells using hemocytometer.
(§5) c. Plate 4,000-5,000 cells per well in 100 μl of medium and seed into a 96-well plate according to the following plate layout. Add cell culture medium only to wells B10 to B12. Wells B1 to B9 have cells but no compound added.
(§6) d. Add 100 μl of 2× drug dilution to each well in a concentration shown in the plate layout above. At the same time, add 100 μl of media into the control wells (wells B10 to B12). Total volume is 200 μl/well.
(§7) e. Incubate four (4) days at 37° C., 5% CO2 in a humidified incubator.
(§8) f. Add 20 μl Alamar Blue reagent to each well.
(§9) g. Incubate for four (4) hours at 37° C., 5% CO2 in a humidified incubator.
(§10) h. Record fluorescence at an excitation wavelength of 544 nm and emission wavelength of 590 nm using a microplate reader.
(§11) In the assays, cells are cultured with a test compound for approximately four days, the dye is then added to the cells and fluorescence of […] dye is detected after approximately four hours. Different types of cells can be utilized in the assays (e.g., HCT-116 human colorectal carcinoma cells, PC-3 human prostatic cancer cells, MDA-MB231 human breast cancer cells, K-562 human chronic myelogenous leukemia (CML) cells, MiaPaca human pancreatic carcinoma cells, MV-4 human acute myeloid leukemia cells, and BxPC3 human pancreatic adenocarcinoma cells).

MDA-MB45 = assay: Alamar Blue cell proliferation assay, MDA-MB45; format: cell-based
Procedure: as §2, §3, §4, §5, §6, §7, §8, §9, §10, §11

SUM-149PT = assay: Alamar Blue cell proliferation assay, SUM-149PT; format: cell-based; settings: Homo sapiens, SUM149PT
Procedure: as §2, §3, §4, §5, §6, §7, §8, §9, §10, §11

Chain of recombinant human PIM2 (Q9P1W9 whole entry): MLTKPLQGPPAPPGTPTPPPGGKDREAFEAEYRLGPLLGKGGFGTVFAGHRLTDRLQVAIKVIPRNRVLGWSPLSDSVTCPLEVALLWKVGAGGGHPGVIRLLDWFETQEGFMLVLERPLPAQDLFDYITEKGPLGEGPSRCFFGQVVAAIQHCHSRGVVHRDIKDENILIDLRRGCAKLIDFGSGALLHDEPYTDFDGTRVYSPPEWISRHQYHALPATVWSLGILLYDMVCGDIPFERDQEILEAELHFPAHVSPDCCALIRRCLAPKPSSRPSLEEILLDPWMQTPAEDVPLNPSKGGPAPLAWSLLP
T1 sequence (P68400 whole entry): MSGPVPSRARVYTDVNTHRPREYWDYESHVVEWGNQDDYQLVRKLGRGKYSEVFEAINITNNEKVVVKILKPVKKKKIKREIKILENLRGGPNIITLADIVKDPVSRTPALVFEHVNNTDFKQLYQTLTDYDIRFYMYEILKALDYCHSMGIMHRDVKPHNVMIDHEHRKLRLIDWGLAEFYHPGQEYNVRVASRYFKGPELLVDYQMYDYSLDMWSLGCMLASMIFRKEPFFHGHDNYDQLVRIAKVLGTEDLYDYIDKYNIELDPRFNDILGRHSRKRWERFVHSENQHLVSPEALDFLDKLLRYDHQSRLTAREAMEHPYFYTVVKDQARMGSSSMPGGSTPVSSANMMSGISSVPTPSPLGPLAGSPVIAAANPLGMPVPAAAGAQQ
T1 sequence (P67870 whole entry partner): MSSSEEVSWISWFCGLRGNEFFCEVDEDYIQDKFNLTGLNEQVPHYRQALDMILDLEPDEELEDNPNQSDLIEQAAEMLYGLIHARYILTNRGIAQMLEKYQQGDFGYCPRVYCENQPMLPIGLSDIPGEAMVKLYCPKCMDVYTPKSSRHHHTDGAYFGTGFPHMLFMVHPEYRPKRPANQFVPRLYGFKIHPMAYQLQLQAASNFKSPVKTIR
Chain of recombinant PIM-1 (P11309 whole entry): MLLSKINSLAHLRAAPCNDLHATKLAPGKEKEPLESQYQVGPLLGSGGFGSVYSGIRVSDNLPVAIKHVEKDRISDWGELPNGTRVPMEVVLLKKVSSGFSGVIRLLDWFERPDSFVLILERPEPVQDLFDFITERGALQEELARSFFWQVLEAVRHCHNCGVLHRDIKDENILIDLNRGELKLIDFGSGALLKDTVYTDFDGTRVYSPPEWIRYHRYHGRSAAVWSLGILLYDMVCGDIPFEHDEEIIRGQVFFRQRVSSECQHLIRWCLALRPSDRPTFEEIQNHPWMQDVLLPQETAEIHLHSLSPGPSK

IC50 (recombinant PIM-1): < 0.1 µM | IC50 (recombinant human CK2): < 0.1 µM | IC50 (recombinant human PIM2): < 0.1 µM | IC50 (FLT3): > 10 µM | IC50 [1]: > 10 µM | IC50 (MV-4-11): < 5 µM | IC50 [2]: < 10 µM | IC50 (MDA-MB45): < 5 µM
Compound: Clc1ccccc1Nc1nc2c(-c3nnc[nH]3)cccc2n2cccc12
IC50 (SUM-149PT): < 5 µM

From patent publication US20100298302A1, “NOVEL PROTEIN KINASE MODULATORS” (priority 2009, published 2010)
